Measurements from patent publication US6946558B2 (CJ Corp., priority 2001, dated 2005).

Experiments:
cyclooxygenase-1 = target: T1, cyclooxygenase-1 (Homo sapiens, UniProt P23219); test: Cyclooxygenase-1 inhibition in U-937 cells (PGE2 quantitation after arachidonic acid); type: cell-based; details: for Inhibitory effects of cyclooxygenase (COX): COX-1 (U-937): U-937 cells; for inhibition effect against cyclooxygenase-1 compared with standard substance SC-58635: in words, compared with SC-58635
T1 construct: endogenous in cells; host or cells: U-937 (Korean cell line bank)
Protocol: (§1) In order to investigate pharmacologically the selective inhibition activity against cyclooxygenase-2 enzyme, the inhibitive effects against cyclooxygenase-1 and cyclooxygenase-2 were measured by two methods as follows.
Then, the pellet was diluted with 1×HBSS (Hank's balanced salt solutin) at the concentration of 1×10^6 cells/ml, and 1 ml of them was transferred into each of 12-well plates, and then dissolved with DMSO. 5 μl of the diluted sample solution and 5 μl of DMSO vehicle were added therein and mixed, and the mixture was cultured at 37° C. in CO2 incubator for 15 minutes. Arachidonic acid as a substrate was dissolved in ethanol to prepare a stock solution with a concentration of 10 mM, followed by diluting with 1×HBSS to prepare the solution of 1 mM. 10 μl of 1 mM Arachidonic acid solution was added to each of the treated wells and the mixture was cultured at 37° C. in CO2 incubator for 30 minutes. The cell solution of each well was collected in the centrifuge tube and centrifuged at 4° C., for 5 minutes at 10,000 rpm. As PGE2 existed in the supernatant separated from collected cell, the concentration of PGE2 was quantitated by using monoclonal kit from Cayman Chemicals, and the concentration of samples and vehicle were compared to estimate the inhibition ratio (%) of each compound against cyclooxygenase-1. Ultimately, the inhibition effect against the cyclooxygenase-1 enzyme was obtained from the result.

cyclooxygenase-2 = target: T2, cyclooxygenase-2 (Mus musculus, UniProt Q05769); test: Cyclooxygenase-2 inhibition in Raw 264.7 cells (interferon γ/LPS induced, PGE2 EIA); type: cell-based; details: for Inhibitory effects of cyclooxygenase (COX): COX-2 (Raw 264.7): Raw 264.7 cells; for selectivity of cyclooxygenase-2 compared with standard substance: COX-2 versus COX-1, compared with SC-58635
T2 construct: endogenous in cells; host or cells: Raw 264.7 (Korean cell line bank), induced with interferon γ and LPS
T2 sequence (Q05769 18-604): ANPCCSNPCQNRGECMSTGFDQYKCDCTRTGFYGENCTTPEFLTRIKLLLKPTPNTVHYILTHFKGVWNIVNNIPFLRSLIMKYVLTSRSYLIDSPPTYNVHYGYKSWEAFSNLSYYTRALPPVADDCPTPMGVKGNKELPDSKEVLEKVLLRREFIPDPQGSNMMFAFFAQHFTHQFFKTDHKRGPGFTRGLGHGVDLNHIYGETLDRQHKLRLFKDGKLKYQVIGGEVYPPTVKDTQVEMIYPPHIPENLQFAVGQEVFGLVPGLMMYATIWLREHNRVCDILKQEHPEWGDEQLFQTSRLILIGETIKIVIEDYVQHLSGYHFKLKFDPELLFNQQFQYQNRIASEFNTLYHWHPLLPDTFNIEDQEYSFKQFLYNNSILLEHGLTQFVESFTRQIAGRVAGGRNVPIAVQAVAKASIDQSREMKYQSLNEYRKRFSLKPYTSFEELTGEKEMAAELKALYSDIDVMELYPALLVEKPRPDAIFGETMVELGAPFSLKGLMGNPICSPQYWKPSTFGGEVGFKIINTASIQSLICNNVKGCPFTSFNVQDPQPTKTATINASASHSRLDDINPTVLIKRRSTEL
Protocol: as §1
And then, each samples were replaced with new media and cultured for 30 minutes. In addition, the samples were treated with 100 units/ml of interferon γ and 100 ng/ml of lipopolysaccharide (LPS), and cultured for 18 hours. Then, the media was transferred to other tubes and the PGE 2 was quantitated by using EIA kit from Cayman Chemicals.

T1 sequence (P23219 24-599): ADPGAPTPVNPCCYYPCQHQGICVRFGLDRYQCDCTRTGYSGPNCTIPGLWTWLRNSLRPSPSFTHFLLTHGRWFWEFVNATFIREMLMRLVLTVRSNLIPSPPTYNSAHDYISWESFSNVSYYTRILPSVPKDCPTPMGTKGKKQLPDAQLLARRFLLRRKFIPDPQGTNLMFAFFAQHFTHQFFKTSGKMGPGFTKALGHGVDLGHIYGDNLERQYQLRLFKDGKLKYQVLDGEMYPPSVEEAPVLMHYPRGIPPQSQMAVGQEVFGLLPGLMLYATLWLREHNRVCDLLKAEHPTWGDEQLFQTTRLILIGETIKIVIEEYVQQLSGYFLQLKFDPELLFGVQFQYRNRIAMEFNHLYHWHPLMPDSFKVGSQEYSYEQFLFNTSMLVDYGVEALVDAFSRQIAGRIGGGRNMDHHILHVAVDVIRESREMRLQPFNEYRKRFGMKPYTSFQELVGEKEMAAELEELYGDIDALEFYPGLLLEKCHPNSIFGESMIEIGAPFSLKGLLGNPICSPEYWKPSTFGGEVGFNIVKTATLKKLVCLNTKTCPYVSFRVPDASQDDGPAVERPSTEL

Inhibitory effects of cyclooxygenase (COX): COX-1 (U-937) (cyclooxygenase-1; 1 μM)	Inhibitory effects of cyclooxygenase (COX): COX-1 (U-937) (cyclooxygenase-1; 3 μM)	Inhibitory effects of cyclooxygenase (COX): COX-1 (U-937) (cyclooxygenase-1; 10 μM)	Inhibitory effects of cyclooxygenase (COX): COX-2 (Raw 264.7) (cyclooxygenase-2; 30 nM)	Inhibitory effects of cyclooxygenase (COX): COX-2 (Raw 264.7) (cyclooxygenase-2; 100 nM)	Inhibitory effects of cyclooxygenase (COX): COX-2 (Raw 264.7) (cyclooxygenase-2; 300 nM)	selectivity of cyclooxygenase-2 compared with standard substance (cyclooxygenase-2; in words)	SMILES	inhibition effect against cyclooxygenase-1 compared with standard substance SC-58635 (cyclooxygenase-1)	inhibition effect against cyclooxygenase-2 compared with standard substance SC-58635 (cyclooxygenase-2; in words, low concentration, same condition as SC-58635)
12.2 % inhibition	15.6 % inhibition	17.0 % inhibition	15.8 % inhibition	28.5 % inhibition	40.8 % inhibition	–	CC(C)=CCOc1cccnc1-c1ccc(S(C)(=O)=O)nc1 [Example 4, 6′-methylsulfonyl-3-(3-methyl-2-butenyloxy)-2,3′-bipyridinyl]	–	–
13.5 % inhibition	16.2 % inhibition	18.9 % inhibition	10.3 % inhibition	11.01 % inhibition	20.1 % inhibition	hardly different	C[C@H](CO)COc1cccnc1-c1ccc(S(C)(=O)=O)nc1 [Example 5, (R)-3-(6′-methylsulfonyl-2,3′-bipyridine-3-yloxy)-2-methyl-1-propanol]	much lower level than a comparative substance	–
14.3 % inhibition	17.2 % inhibition	24.5 % inhibition	9.3 % inhibition	12.0 % inhibition	21.0 % inhibition	hardly different	C[C@@H](CO)COc1cccnc1-c1ccc(S(C)(=O)=O)nc1 [Example 6, (S)-3-(6′-methylsulfonyl-2,3′-bipyridine-3-yloxy)-2-methyl-1-propanol]	much lower level than a comparative substance	–

Second part, the molecule before the results:

SMILES	Inhibitory effects of cyclooxygenase (COX): COX-1 (U-937) (cyclooxygenase-1; 1 μM)	Inhibitory effects of cyclooxygenase (COX): COX-1 (U-937) (cyclooxygenase-1; 3 μM)	Inhibitory effects of cyclooxygenase (COX): COX-1 (U-937) (cyclooxygenase-1; 10 μM)	Inhibitory effects of cyclooxygenase (COX): COX-2 (Raw 264.7) (cyclooxygenase-2; 30 nM)	Inhibitory effects of cyclooxygenase (COX): COX-2 (Raw 264.7) (cyclooxygenase-2; 100 nM)	Inhibitory effects of cyclooxygenase (COX): COX-2 (Raw 264.7) (cyclooxygenase-2; 300 nM)	selectivity of cyclooxygenase-2 compared with standard substance (cyclooxygenase-2; in words)	inhibition effect against cyclooxygenase-1 compared with standard substance SC-58635 (cyclooxygenase-1)	inhibition effect against cyclooxygenase-2 compared with standard substance SC-58635 (cyclooxygenase-2; in words, low concentration, same condition as SC-58635)
CC(C)Oc1cccnc1-c1ccc(S(C)(=O)=O)nc1 [Example 1, 3-isopropyloxy-6′-methylsulfonyl-2,3′-bipyridinyl]	0.2 % inhibition	7.5 % inhibition	11.0 % inhibition	10.2 % inhibition	14.2 % inhibition	15.2 % inhibition	hardly different	much lower level than a comparative substance	–
CS(=O)(=O)c1ccc(-c2ncccc2OC2CCCC2)cn1 [Example 2, 3-cyclopentyloxy-6′-methylsulfonyl-2,3′-bipyridinyl]	12.7 % inhibition	14.3 % inhibition	21.0 % inhibition	40.3 % inhibition	53.2 % inhibition	63.5 % inhibition	better than any other standard substances	much lower level than standard substance	more excellent in low concentration than standard substance
CS(=O)(=O)c1ccc(-c2ncccc2OC2CCCCC2)cn1 [Example 3, 3-cyclohexyloxy-6′-methylsulfonyl-2,3′-bipyridinyl]	11.2 % inhibition	12.5 % inhibition	14.0 % inhibition	23.5 % inhibition	30.2 % inhibition	42.2 % inhibition	–	–	–
